The numbers were not newly measured in US10543293B2, “Medical dressing” (BSN MEDICAL GMBH, priority 2013, dated 2020), which cites them from elsewhere.

For data set [1] the following is noted: generally assumed.
A further data set deals with keratinocytes. The following applies: NO concentrations employed in vitro; human keratinocytes.
The subject of another data set is endothelial cells. As to conditions: NO concentrations employed in vitro; human endothelial cells.
The test system of a further data set is human fibroblasts. The following applies: NO concentrations employed in vitro.

Take `[N]=O` [NO, nitric oxide]: the “maximum solubility of NO in aqueous solutions” value in data set [1] is on record as “approximately 2 mM”. Further, the toxic effects result in the data set with keratinocytes, in the data set with endothelial cells and with human fibroblasts was “did not display any toxic effects” throughout. For the setting “at 37° C., higher than that of oxygen or carbon monoxide”, the “diffusion coefficient of NO relative to oxygen or carbon monoxide” value is reported as “approximately 1.4 times”. Besides, the “diffusion path that can be achieved in the tissues” value (calculated on the basis of the diffusion coefficient) is 500 μm.
